Experimental data as given in US7265156B2 (Dospharma, priority 2000, dated 2007).
Where a name gives a salt, the structure may show the parent alone. Read-outs that look alike come from different tables or passages of the source.

Assays:
NIDDM patients = conditions: humans, simultaneous administration, arginine 30 g intravenous over 30 min; cited from earlier work
[1] = tested on: rats made diabetic with fructose; experiment: Anti-diabetic activity in rats made diabetic with fructose at 10% in the drinking water; type: in vivo, rat; conditions: for 21 days fructose (glycemia mM) / Control (glycemia mM): rats; for 21 days fructose (glycemia mM): group baseline after 21 days fructose, before treatment; for Control (glycemia mM): group baseline before fructose and before treatment
Experimental: The second model is prepared by administering fructose at 10% in the drinking water of the rats for three weeks. An insulin resistance develops, followed by diabetes of […] type. […]

[2] = 50 mg/kg
[3] = tested on: streptozotocine model and fructose model; conditions: rats, 50 mg/kg; cited from earlier work
[4] = tested on: rats made diabetic with streptozotocin; experiment: Anti-diabetic activity in rats made diabetic with streptozotocin; type: in vivo, rat; conditions: streptozotocin rats (50 mg/kg IP); for hyperglycemia after treatment: 30 mg/kg; for hyperglycemia before treatment: baseline of the 30 mg/kg group
Excerpt: From the pharmacological point of view, the anti-diabetic activity was studied on two models of rats made diabetic.

[5] = tested on: hamsters made diabetic by fructose; experiment: Anti-diabetic activity in hamsters made diabetic by fructose for three months; type: in vivo, hamster; conditions: for 2 weeks treatment (glycemia mg/dl): hamsters, fructose 3 months, 10 mg/kg/day, fructose only 143, control without fructose 91 mg/dl
Experimental: The anti diabetic activity was also tested on hamsters made diabetic by the administration of fructose for three months. […]

[6] = tested on: microcirculation of the hamster cheek pouch; experiment: Study on the cheek pouch of the hamster (microcirculation); type: in vivo; conditions: vasodilatory action of arginine and action of metformin on vasomotion
[7] = In vitro assay of cleavage in an intestinal juice; type: in vitro ADME; conditions: 37° C., arginine hemisuccinimide part not modified
Experimental: A preparation of intestinal juice containing trypsin, peptidases, lipase, amylase and all the other enzymes of the exocrine pancreas is used. This assay is validated beforehand using calibration compounds. A known amount (of the order of one microgram) of the compound A′V′C′ is mixed together with a known amount of intestinal juice (the trypsin and lipase contents of which are controlled). The reaction mixture is kept at 37° C. for one hour. This time is compatible with the intestinal transit. Samples are taken every 15 min, and the products A and C are detected and their concentration measured using HPLC coupled to a UV detector, or a mass spectrometer if it is not possible to use UV. The columns used depend on the nature of A and of C, but are generally ion-exchange columns, because of the presence of released alcohol, amine or acid forms. […] This assay can be coupled with determination of the release of A (biguanide), C (transporter) and V in the gastric juice, using exactly the same principle but replacing the intestinal juice with gastric juice.
A second assay is carried out on a rat hepatocyte culture, according to the method described above.

Compound | 4 days treatment (glycemia mM) ([1]; fructose rats, 30 mg/kg/day) [mM] | 8 days treatment (glycemia mM) ([1]; fructose rats, 30 mg/kg/day) [mM] | 12 days treatment (glycemia mM) ([1]; fructose rats, 30 mg/kg/day) [mM] | 21 days treatment (glycemia mM) ([1]; fructose rats, 30 mg/kg/day) [mM] | 21 days fructose (glycemia mM) [1] [mM] | Control (glycemia mM) [1] [mM] | hyperglycemia after treatment [4] [mM] | hyperglycemia before treatment [4] [mM] | 2 weeks treatment (glycemia mg/dl) [5] [mg/dL] | other results
N=C(N)NCCC[C@H](N)C(=O)O [arginine] | 14.37 ± 0.20 | 12.56 ± 0.89 | 11.98 ± 0.71 | 10.73 ± 1.27 | 13.24 ± 0.62 | 6.87 ± 0.14 |  |  |  | effect on the antihyperglycemic effects of metformin (NIDDM patients): not modified
CN(C)C(=N)N=C(N)N [metformin hydrochloride] |  |  |  |  |  |  |  |  |  | concentration peak ([2]; rat, in vivo, po): 3900 ng/mL; time of concentration peak ([2]; rat, in vivo, po): ≤ 90 min; activity on conventional models of non-insulin dependent diabetes [3]: active
CN(C)C(=N)NC(=N)N [metformin, N,N-dimethylimidodicarbonimidic diamide] | 13.41 ± 0.52 | 10.83 ± 0.64 | 9.78 ± 0.72 | 9.87 ± 0.68 | 12.52 ± 0.52 | 6.94 ± 0.13 | 9.85 | 12.11 | 112 | effect on the hemodynamic and hemorheological action of arginine (NIDDM patients): potentiates
arginine hemisuccinimide-metformin hemisuccinate |  |  |  |  | 12.14 ± 0.28 | 6.84 ± 0.06 | 7.56 | 12.66 | 93 | time of concentration peak ([2]; rats, oral, plasma metformin): 60 min; effects on the microcirculation [6]: reproduces at least the effects of the two active principles; anti-diabetic activity compared with metformin on its own ([5]; fructose hamsters, equal dose of 10 mg/kg/day, two weeks of treatment): significantly more active; release of the metformin [7]: Immediate release; 4 days treatment (glycemia mM) ([1]; fructose rats, 70 mg/kg/day): 10.92 ± 0.44 mM; 8 days treatment (glycemia mM) ([1]; fructose rats, 70 mg/kg/day): 9.13 ± 0.64 mM; 12 days treatment (glycemia mM) ([1]; fructose rats, 70 mg/kg/day): 8.43 ± 0.52 mM; 21 days treatment (glycemia mM) ([1]; fructose rats, 70 mg/kg/day): 7.76 ± 0.78 mM; anti-diabetic activity compared with metformin alone ([1]; fructose rats, equivalent dose of metformin base): significantly more active
